Source: PubChem BioAssay AID1259407 (Chemical Carcinogenesis Research Information System (CCRIS), 2018)
Active and inactive are the calls of the source. The rule behind the calls is not given here.

System: CCRIS mutagenicity, Ames/micronucleus/aberration tests
Experiment: CCRIS mutagenicity studies

For `ClC(Cl)Br`, the mutagenic call (End Point: Ames Salmonella typhimurium, Test System: TA97, Metabolic Activation: Hamster, liver, S-9 (10 & 30%), Aroclor 1254, Method: Preincubation) was “inactive; negative”, the mutagenic call (End Point: Ames Salmonella typhimurium, Test System: TA97, Metabolic Activation: None, Method: Preincubation) was “inactive; negative” and the mutagenic call (End Point: Ames Salmonella typhimurium, Test System: TA97, Metabolic Activation: Rat, liver, S-9 (10 & 30%), Aroclor 1254, Method: Preincubation) was “inactive; negative”. For the same compound, the mutagenic call (End Point: Ames Salmonella typhimurium, Test System: TA98, Metabolic Activation: Hamster, liver, S-9 (10 & 30%), Aroclor 1254, Method: Preincubation) was “inactive; negative”, the mutagenic call (End Point: Ames Salmonella typhimurium, Test System: TA98, Metabolic Activation: None, Method: Preincubation) was “inactive; negative” and the mutagenic call (End Point: Ames Salmonella typhimurium, Test System: TA98, Metabolic Activation: Rat, liver, S-9 (10 & 30%), Aroclor 1254, Method: Preincubation) was “inactive; negative”. For the same compound, the mutagenic call (End Point: Ames Salmonella typhimurium, Test System: TA100, Metabolic Activation: Hamster, liver, S-9 (10 & 30%), Aroclor 1254, Method: Preincubation) was “inactive; negative”, the mutagenic call (End Point: Ames Salmonella typhimurium, Test System: TA100, Metabolic Activation: None, Method: Preincubation) was “inactive; negative” and the mutagenic call (End Point: Ames Salmonella typhimurium, Test System: TA100, Metabolic Activation: Rat, liver, S-9 (10 & 30%), Aroclor 1254, Method: Preincubation) was “inactive; negative”. For the same compound, the mutagenic call (End Point: Ames Salmonella typhimurium, Test System: TA1535, Metabolic Activation: Hamster, liver, S-9 (10 & 30%), Aroclor 1254, Method: Preincubation) was “inactive; negative”, the mutagenic call (End Point: Ames Salmonella typhimurium, Test System: TA1535, Metabolic Activation: None, Method: Preincubation) was “inactive; negative” and the mutagenic call (End Point: Ames Salmonella typhimurium, Test System: TA1535, Metabolic Activation: Rat, liver, S-9 (10 & 30%), Aroclor 1254, Method: Preincubation) was “inactive; negative”. The mutagenic call (End Point: IN VITRO CHROMOSOMAL ABERRATIONS, Test System: CHINESE HAMSTER LUNG FIBROBLAST CELLS (CHL/IU), Metabolic Activation: RAT, LIVER, S-9, PHENOBARBITAL AND 5,6-BENZOFLAVONE) was “active; positive (structural changes)”, the mutagenic call (End Point: IN VITRO CHROMOSOMAL ABERRATIONS, Test System: CHO CELLS, Metabolic Activation: NONE) was “inactive; negative” and the mutagenic call (End Point: IN VITRO CHROMOSOMAL ABERRATIONS, Test System: CHO CELLS, Metabolic Activation: RAT, LIVER, S-9, AROCLOR 1254) was “inactive; negative”. For the same compound, the mutagenic call (End Point: In vivo micronucleus, Test System: Bone marrow polychromatic erythrocytes, Species: Mouse, Strain/Sex: B6C3F1/Male, Route: Intraperitoneal) was “inactive; negative; strain was inferred”, the mutagenic call (End Point: In vivo micronucleus, Test System: Peripheral blood normochromatic erythrocytes, Species: Mouse, Strain/Sex: B6C3F1/Female, Route: Oral) was “inactive; negative” and the mutagenic call (End Point: In vivo micronucleus, Test System: Peripheral blood normochromatic erythrocytes, Species: Mouse, Strain/Sex: B6.129-Trp53tm1Brd (N5) p53 Haploinsufficient//Male, Route: Oral) was “inactive; negative”. For the same compound, the mutagenic call (End Point: In vivo micronucleus, Test System: Peripheral blood normochromatic erythrocytes, Species: Mouse, Strain/Sex: B6.129-Trp53tm1Brd (N5) p53 Haploinsufficient/Female, Route: Oral) was “inactive; negative”, the mutagenic call (End Point: In vivo micronucleus, Test System: Peripheral blood normochromatic erythrocytes, Species: Mouse, Strain/Sex: B6.129-Trp53tm1Brd (N5) p53 Haploinsufficient/Male, Route: Oral) was “inactive; negative, positive results only at 350 mg/l; trend test not significant” and the mutagenic call (End Point: In vivo micronucleus, Test System: Peripheral blood normochromatic erythrocytes, Species: Mouse, Strain/Sex: FVB Tg.AC hemizygous/Female, Route: Dermal) was “inactive; negative”. For the same compound, the mutagenic call (End Point: In vivo micronucleus, Test System: Peripheral blood normochromatic erythrocytes, Species: Mouse, Strain/Sex: FVB Tg.AC hemizygous/Female, Route: Oral) was “inactive; negative”, the mutagenic call (End Point: In vivo micronucleus, Test System: Peripheral blood normochromatic erythrocytes, Species: Mouse, Strain/Sex: FVB Tg.AC hemizygous/Male, Route: Dermal) was “inactive; negative” and the mutagenic call (End Point: In vivo micronucleus, Test System: Peripheral blood normochromatic erythrocytes, Species: Mouse, Strain/Sex: FVB Tg.AC hemizygous/Male, Route: Oral) was “inactive; negative”. The mutagenic call (End Point: Mouse Lymphoma, Test System: L5178Y (TK+/TK-), Metabolic Activation: None, Method: Suspension/Plate) was “inactive; negative”, the mutagenic call (End Point: Mouse Lymphoma, Test System: L5178Y (TK+/TK-), Metabolic Activation: Rat, liver, S-9, Aroclor 1254, Method: Suspension/Plate) was “active; positive” and the mutagenic call (Test System: AMES SALMONELLA TYPHIMURIUM, Strain/Indicator: RSJ100, Metabolic Activation: NONE, Method: STANDARD PLATE) was “active; positive”. For the same compound, the mutagenic call (Test System: AMES SALMONELLA TYPHIMURIUM, Strain/Indicator: TA97, Metabolic Activation: NONE, Method: STANDARD PLATE) was “inactive; negative”, the mutagenic call (Test System: AMES SALMONELLA TYPHIMURIUM, Strain/Indicator: TA97, Metabolic Activation: RAT, LIVER, S-9, AROCLOR 1254, Method: STANDARD PLATE) was “active; positive” and the mutagenic call (Test System: AMES SALMONELLA TYPHIMURIUM, Strain/Indicator: TA98, Metabolic Activation: HAMSTER, LIVER, S-9, AROCLOR 1254, Method: PREINCUBATION) was “inactive; negative”. The mutagenic call (Test System: AMES SALMONELLA TYPHIMURIUM, Strain/Indicator: TA98, Metabolic Activation: NONE, Method: PREINCUBATION) was “inactive; negative”, the mutagenic call (Test System: AMES SALMONELLA TYPHIMURIUM, Strain/Indicator: TA98, Metabolic Activation: NONE, Method: STANDARD PLATE) was “inactive; negative” and the mutagenic call (Test System: AMES SALMONELLA TYPHIMURIUM, Strain/Indicator: TA98, Metabolic Activation: RAT, LIVER, S-9, AROCLOR 1254, Method: PREINCUBATION) was “inactive; negative”. For the same compound, the mutagenic call (Test System: AMES SALMONELLA TYPHIMURIUM, Strain/Indicator: TA100, Metabolic Activation: HAMSTER, LIVER, S-9, AROCLOR 1254, Method: PREINCUBATION) was “inactive; negative”, the mutagenic call (Test System: AMES SALMONELLA TYPHIMURIUM, Strain/Indicator: TA100, Metabolic Activation: NONE, Method: DESICCATOR) was “active; positive” and the mutagenic call (Test System: AMES SALMONELLA TYPHIMURIUM, Strain/Indicator: TA100, Metabolic Activation: NONE, Method: FLUCTUATION TEST) was “inactive; negative”. The mutagenic call (Test System: AMES SALMONELLA TYPHIMURIUM, Strain/Indicator: TA100, Metabolic Activation: NONE, Method: PREINCUBATION) was “inactive; negative”, the mutagenic call (Test System: AMES SALMONELLA TYPHIMURIUM, Strain/Indicator: TA100, Metabolic Activation: NONE, Method: STANDARD PLATE) was “inactive; negative” and the mutagenic call (Test System: AMES SALMONELLA TYPHIMURIUM, Strain/Indicator: TA100, Metabolic Activation: RAT, LIVER, S-9, AROCLOR 1254, Method: FLUCTUATION TEST) was “inactive; negative”. For the same compound, the mutagenic call (Test System: AMES SALMONELLA TYPHIMURIUM, Strain/Indicator: TA100, Metabolic Activation: RAT, LIVER, S-9, AROCLOR 1254, Method: PREINCUBATION) was “inactive; negative”, the mutagenic call (Test System: AMES SALMONELLA TYPHIMURIUM, Strain/Indicator: TA104, Metabolic Activation: NONE, Method: STANDARD PLATE) was “inactive; negative” and the mutagenic call (Test System: AMES SALMONELLA TYPHIMURIUM, Strain/Indicator: TA104, Metabolic Activation: RAT, LIVER, S-9, AROCLOR 1254, Method: STANDARD PLATE) was “active; positive”. The mutagenic call (Test System: AMES SALMONELLA TYPHIMURIUM, Strain/Indicator: TA1535 (GST+), Metabolic Activation: NONE, Method: STANDARD PLATE) was “active; positive”, the mutagenic call (Test System: AMES SALMONELLA TYPHIMURIUM, Strain/Indicator: TA1535 (GST-), Metabolic Activation: NONE, Method: STANDARD PLATE) was “inactive; negative” and the mutagenic call (Test System: AMES SALMONELLA TYPHIMURIUM, Strain/Indicator: TA1535, Metabolic Activation: HAMSTER, LIVER, S-9, AROCLOR 1254, Method: PREINCUBATION) was “inactive; negative”. The mutagenic call (Test System: AMES SALMONELLA TYPHIMURIUM, Strain/Indicator: TA1535, Metabolic Activation: NONE, Method: PREINCUBATION) was “inactive; negative”, the mutagenic call (Test System: AMES SALMONELLA TYPHIMURIUM, Strain/Indicator: TA1535, Metabolic Activation: RAT, LIVER, S-9, AROCLOR 1254, Method: PREINCUBATION) was “inactive; negative” and the mutagenic call (Test System: AMES SALMONELLA TYPHIMURIUM, Strain/Indicator: TA1535, Metabolic Activation: RAT, LIVER, S-9, AROCLOR 1254, Method: STANDARD PLATE) was “inactive; negative”. The mutagenic call (Test System: AMES SALMONELLA TYPHIMURIUM, Strain/Indicator: TA1537, Metabolic Activation: HAMSTER, LIVER, S-9, AROCLOR 1254, Method: PREINCUBATION) was “inactive; negative”, the mutagenic call (Test System: AMES SALMONELLA TYPHIMURIUM, Strain/Indicator: TA1537, Metabolic Activation: NONE, Method: PREINCUBATION) was “inactive; negative” and the mutagenic call (Test System: AMES SALMONELLA TYPHIMURIUM, Strain/Indicator: TA1537, Metabolic Activation: NONE, Method: STANDARD PLATE) was “active; positive”. For the same compound, the mutagenic call (Test System: AMES SALMONELLA TYPHIMURIUM, Strain/Indicator: TA1537, Metabolic Activation: RAT, LIVER, S-9, AROCLOR 1254, Method: PREINCUBATION) was “inactive; negative”, the mutagenic call (Test System: AMES SALMONELLA TYPHIMURIUM, Strain/Indicator: TA1537, Metabolic Activation: RAT, LIVER, S-9, AROCLOR 1254, Method: STANDARD PLATE) was “inactive; negative” and the mutagenic call (Test System: MOUSE LYMPHOMA, Strain/Indicator: L5178Y (TK+/TK-), Metabolic Activation: NONE, Method: MICROWELL) was “inactive; negative”. The mutagenic call (Test System: MOUSE LYMPHOMA, Strain/Indicator: L5178Y (TK+/TK-), Metabolic Activation: NONE, Method: SUSPENSION/PLATE) was “inactive; negative”, the mutagenic call (Test System: MOUSE LYMPHOMA, Strain/Indicator: L5178Y (TK+/TK-), Metabolic Activation: RAT, LIVER, S-9, AROCLOR 1254, Method: SUSPENSION/PLATE) was “active; positive” and the mutagenic call (Test System: MOUSE LYMPHOMA, Strain/Indicator: L5178Y (TK+/TK-), Metabolic Activation: S-9, Method: MICROWELL) was “active; positive”. The mutagenic call (Test System: UDS RAT HEPATOCYTES, Strain/Indicator: THY INCORP, Metabolic Activation: NONE, Method: AUTORADIOGRAPHY) was “inactive; negative”.
